Results on 25 compounds are retold here after patent publication US20250353857A1, “COMPOUND ACTIVE AS INHIBITOR OF COLONY STIMULATION FACTOR-1 RECEPTOR (CSF-1 R)” (priority 2022, published 2025).

Test [1] has as its system P-MAPK (ERK1/2) in CSF-1 stimulated bone-marrow derived macrophages. In words: Effect of CSF1R inhibitors on MAPK signaling in mouse bone-marrow derived macrophages. It is filed as cell-based. The conditions noted are these: fold change relative to PLX3397 (IC50 inhibitor/IC50 PLX3397), P-MAPK/total MAPK, 10 ng/mL CSF-1.
The target of another test is CSF1R (Homo sapiens (Human), UniProt P07333). In words: CSF1R enzymatic inhibitory assay (Invitrogen Z'-LYTE, FRET).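 Further: kinase phosphorylates a tyrosine on a coumarin/fluorescein FRET peptide, a protease cuts peptide left unphosphorylated, inhibition quantified from the donor-to-acceptor emission ratio with excitation at 400 nm.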 It is filed as biochemical.
[2] abbreviates: Z'-LYTE assay, ATP concentration equal to Km, average of at least 2 titration curves, read-out: CSF1R (IC50).

Each structure is given as a SMILES string. Read-outs that look alike come from different tables or passages of the source.

Chain of CSF1R (P07333 20-972): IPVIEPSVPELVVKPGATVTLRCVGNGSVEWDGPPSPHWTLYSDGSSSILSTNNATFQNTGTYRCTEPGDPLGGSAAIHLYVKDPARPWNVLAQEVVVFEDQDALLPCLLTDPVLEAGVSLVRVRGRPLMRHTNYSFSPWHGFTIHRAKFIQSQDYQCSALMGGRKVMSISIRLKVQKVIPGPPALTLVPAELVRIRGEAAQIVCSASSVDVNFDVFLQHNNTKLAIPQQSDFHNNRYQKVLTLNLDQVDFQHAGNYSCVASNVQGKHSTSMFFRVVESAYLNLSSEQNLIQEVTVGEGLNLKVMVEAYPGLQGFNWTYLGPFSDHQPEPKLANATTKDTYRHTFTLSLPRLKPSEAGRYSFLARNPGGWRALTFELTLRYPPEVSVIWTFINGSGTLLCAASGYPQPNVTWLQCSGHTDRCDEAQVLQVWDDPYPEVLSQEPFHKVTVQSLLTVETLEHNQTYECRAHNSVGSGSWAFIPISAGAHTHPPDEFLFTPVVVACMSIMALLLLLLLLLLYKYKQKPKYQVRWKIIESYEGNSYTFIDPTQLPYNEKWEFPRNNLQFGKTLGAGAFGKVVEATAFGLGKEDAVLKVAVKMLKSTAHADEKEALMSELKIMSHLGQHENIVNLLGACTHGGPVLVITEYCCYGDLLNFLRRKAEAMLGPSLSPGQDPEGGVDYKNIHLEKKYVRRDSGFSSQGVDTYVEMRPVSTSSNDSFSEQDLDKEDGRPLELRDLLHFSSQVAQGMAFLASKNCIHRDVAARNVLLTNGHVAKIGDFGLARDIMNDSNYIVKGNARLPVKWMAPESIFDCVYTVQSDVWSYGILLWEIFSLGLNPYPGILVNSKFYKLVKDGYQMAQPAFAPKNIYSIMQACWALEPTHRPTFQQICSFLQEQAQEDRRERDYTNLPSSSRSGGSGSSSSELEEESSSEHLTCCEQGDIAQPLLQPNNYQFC

Consider `CC(C)C1CCCN1c1ncnc2[nH]c(-c3ccc(CO)cc3)nc12` (centres unmarked) [TIA04-065], for which, in test [1], the “MAPK (fold)” value is over 3 fold. Besides, on CSF1R (setting [2]), the 50% inhibitory concentration (IC50) was 5.4 ± 2.4 nM.
For `CN(CC1CCCCO1)c1ncnc2[nH]c(-c3ccc(CO)cc3)nc12` (centres unmarked) [TIA04-095, N-Methyl-N-(oxan-2-ylmethyl)-8-(4-(hydroxymethyl)phenyl)-9H-purin-6-amine], in test [1], the “MAPK (fold)” value is over 3 fold. The IC50 at CSF1R (setting [2]) amounted to 1.3 ± 0.2 nM.
Consider `CN(CC1CCCO1)c1ncnc2[nH]c(-c3ccc(CO)cc3)nc12` (centres unmarked) [TIA04-093, N-Methyl-N-(tetrahydrofuran-2-ylmethyl)-8-(4-(hydroxymethyl)phenyl)-9H-purin-6-amine], for which the “MAPK (fold)” value in test [1] is given as over 3 fold. Besides, the concentration for half-maximal inhibition (IC50) on CSF1R (setting [2]) was determined as 2.6 ± 0.3 nM.
`CN(Cc1ccccc1)c1ncnc2[nH]c(N3CCOCC3)nc12` [TIA04-105, N-Benzyl-N-methyl-8-morpholino-9H-purin-6-amine]: the “MAPK (fold)” value in test [1] is given as over 3 fold. Besides, the IC50 on CSF1R (setting [2]) amounted to 16 ± 4 nM.
As for `CN(Cc1ccc(F)cc1)c1ncnc2[nH]c(-c3ccc(CO)cc3)nc12` [TIA02-134, N-Methyl-N-(4-fluorobenzyl)-8-(4-(hydroxymethyl)phenyl)-9H-purin-6-amine], in test [1], the “MAPK (fold)” value is over 3 fold. In addition, the IC50 on CSF1R (setting [2]) was 8.8 ± 0.3 nM.
Regarding `CN(CC1CCOCC1)c1ncnc2[nH]c(-c3ccc(CCO)cc3)nc12` [TIA05-014, N-Methyl-N-(oxan-4-ylmethyl)-8-(4-(2-hydroxyethyl)phenyl)-9H-purin-6-amine], the “MAPK (fold)” value in test [1] was 1.7 fold. Besides, the 50% inhibitory concentration (IC50) at CSF1R (setting [2]) was found to be 0.2 nM.
As to `Cc1cccc(CN(C)c2ncnc3[nH]c(-c4ccc(C5CCCC(=O)O5)cc4)cc23)c1` (centres unmarked) [LR-1-124, 6-(4-(4-(Methyl(3-methylbenzyl)amino)-7H-pyrrolo[2,3-d]pyrimidin6-yl)phenyl)tetrahydro-2H-pyran-2-one], the “MAPK (fold)” value in test [1] is recorded as 2.1 fold. Also, the IC50 at CSF1R (setting [2]) stood at 0.8 ± 0.1 nM.
For `COc1ccc(CN(C)c2ncnc3[nH]c(-c4ccc(CCC(=O)O)cc4)cc23)cc1OC` [FAB 01-24, 3-(4-(4-((3,4-Dimethoxybenzyl)(methyl)amino)-7H-pyrrolo[2,3-d]pyrimidin-6-yl)phenyl)propanoic acid], the “MAPK (fold)” value in test [1] was over 5 fold. The concentration for half-maximal inhibition (IC50) on CSF1R (setting [2]) is 0.6 nM.
Regarding `CN(Cc1ccccc1)c1ncnc2[nH]c(-c3ccccc3CO)nc12` [JKS02-027, (2-(6-(Benzyl(methyl)amino)-9H-purin-8-yl)phenyl)methanol], the “MAPK (fold)” value in test [1] is over 3 fold. Also, at CSF1R (setting [2]), the IC50 was determined as 1.2 ± 0.2 nM.
Regarding `CN(CC1CCCCC1)c1ncnc2[nH]c(-c3ccc(CO)cc3)cc12` [TIA05-090, (4-(4-((Cyclohexylmethyl)(methyl)amino)-7H-pyrrolo[2,3-d]pyrimidin-6-yl)phenyl)methanol], the “MAPK (fold)” value in test [1] amounted to 1.0 fold. Moreover, the IC50 at CSF1R (setting [2]) was found to be 0.3 nM.
Take `CN1CCCC(CN(C)c2ncnc3[nH]c(-c4ccc(CO)cc4)nc23)C1` (centres unmarked) [TIA04-063, N-Methyl-N-(1-methylpiperidin-3-ylmethyl)-8-(4-(hydroxymethyl)phenyl)-9H-purin-6-amine]: the “MAPK (fold)” value in test [1] was over 3 fold. Moreover, the half-inhibitory concentration (IC50) at CSF1R (setting [2]) was 53 ± 4 nM.
For the compound `OCc1ccc(-c2nc3c(N4CCCC4c4ccccc4)ncnc3[nH]2)cc1` (centres unmarked) [TIA02-176, 8-(4-(Hydroxymethyl)phenyl)-6-(2-phenylpyrrolidin-1-yl)-9H-purine], in test [1], the “MAPK (fold)” value is over 3 fold. On CSF1R (setting [2]), the IC50 was 1.9 ± 0.2 nM.
As to `CN(Cc1cccnc1)c1ncnc2[nH]c(-c3ccc(CO)cc3)nc12` [TIA02-166, N-Methyl-N-(pyridin-3-ylmethyl)-8-(4-(hydroxymethyl)phenyl)-9H-purin-6-amine], the “MAPK (fold)” value in test [1] is over 3 fold. The IC50 on CSF1R (setting [2]) was determined as 2.1 ± 0.4 nM.
With `CN(CC1CCCCC1)c1ncnc2[nH]c(-c3ccc(CN4CCOCC4)cc3)nc12` [TIA04-117, N-(Cyclohexylmethyl)-N-methyl-8-(4-(4-morpholinomethyl)phenyl)-9H-purin-6-amine], the “MAPK (fold)” value in test [1] is given as 1.2 fold. For the same compound, at CSF1R (setting [2]), the IC50 was 1.2 ± 0.2 nM.
On the same counts, the results for `CN(CC1CCCC1)c1ncnc2[nH]c(-c3ccc(CO)cc3)nc12` [TIA03-188, N-Methyl-N-(cyclopentylmethyl)-8-(4-(hydroxymethyl)phenyl)-9H-purin-6-amine] are 0.6 fold and 0.3 ± 0.2 nM.
The like results for `COc1ccccc1CN(C)c1ncnc2[nH]c(-c3ccc(CO)cc3)nc12` [TIA03-106, N-(2-Methoxybenzyl)-N-methyl-8-(4-(hydroxymethyl)phenyl)-9H-purin-6-amine] were, in that order, over 3 fold and 4.2 ± 1.4 nM.
As for `CN(CC1CCOC1)c1ncnc2[nH]c(-c3ccc(CO)cc3)nc12` (centres unmarked) [TIA04-049, N-Methyl-N-(tetrahydrofuran-3-ylmethyl)-8-(4-(hydroxymethyl)phenyl)-9H-purin-6-amine], the “MAPK (fold)” value in test [1] is listed as over 3 fold. Also, the IC50 at CSF1R (setting [2]) amounted to 4.6 ± 0.6 nM.
On the same counts, the results for `CN(CC1CCOCC1)c1ncnc2[nH]c(-c3ccc(CO)cc3)nc12` [TIA04-051, N-Methyl-N-(oxan-4-ylmethyl)-8-(4-(hydroxymethyl)phenyl)-9H-purin-6-amine] are 1 fold and 0.3 nM.
Turning to `CN(Cc1ccccc1O)c1ncnc2[nH]c(-c3ccc(CO)cc3)nc12` [TIA04-009, N-Methyl-N-(2-hydroxybenzyl)-8-(4-(hydroxymethyl)phenyl)-9H-purin-6-amine], the “MAPK (fold)” value in test [1] is recorded as over 3 fold. Besides, on CSF1R (setting [2]), the half-inhibitory concentration (IC50) stood at 2.3 ± 0.3 nM.
In the case of `Cc1cccc(CN(C)c2ncnc3[nH]c(-c4ccc(CO)cc4)nc23)c1` [TIA02-172, N-Methyl-N-(3-methylbenzyl)-8-(4-(hydroxymethyl)phenyl)-9H-purin-6-amine], in test [1], the “MAPK (fold)” value is over 5 fold. Also, the IC50 on CSF1R (setting [2]) was determined as 1.5 ± 0.2 nM.
Take `Cc1ccc(CN(C)c2ncnc3[nH]c(-c4ccc(CO)cc4)nc23)cc1` [TIA02-174, N-Methyl-N-(4-methylbenzyl)-8-(4-(hydroxymethyl)phenyl)-9H-purin-6-amine]: the IC50 on CSF1R (setting [2]) was 12 ± 1 nM.
In the case of `COc1cccc(CN(C)c2ncnc3[nH]c(-c4ccc(CCC(=O)O)cc4)cc23)c1` [FAB01-23, 3-(4-(4-((3-Methoxybenzyl)(methyl)amino)-7H-pyrrolo[2,3-d]pyrimidin-6-yl)phenyl)propanoic acid], in test [1], the “MAPK (fold)” value is on record as over 5 fold. Besides, the IC50 at CSF1R was found to be 0.2 nM.
For the compound `CN(Cc1c(F)cccc1F)c1ncnc2[nH]c(-c3ccc(CN4CCOCC4)cc3)cc12` [SH-01-129, N-(2,6-Difluorobenzyl)-N-methyl-6-(4-(morpholinomethyl)phenyl)-7H-pyrrolo[2,3-d]pyrimidin-4-amine], on CSF1R (setting [2]), the 50% inhibitory concentration (IC50) came out at 1.2 nM.
Turning to `CN(Cc1ccccc1F)c1ncnc2[nH]c(-c3ccc(CO)cc3)nc12` [TIA02-130, N-Methyl-N-(2-fluorobenzyl)-8-(4-(hydroxymethyl)phenyl)-9H-purin-6-amine], the half-inhibitory concentration (IC50) on CSF1R (setting [2]) amounted to 2.3 ± 0.2 nM.
As to `CN(CC1CCCCC1)c1ncnc2[nH]c(-c3ccc(CO)cc3)nc12` [TIA03-024, N-Methyl-N-(cyclohexylmethyl)-8-(4-(hydroxymethyl)phenyl)-9H-purin-6-amine], the “MAPK (fold)” value in test [1] is listed as 0.9 fold. Moreover, the IC50 at CSF1R (setting [2]) is 0.7 nM.

For orientation: IC50 means the point on the concentration scale where inhibition reaches its midpoint.
